For experiment [1], the target named is Carbonic anhydrase 9 (Homo sapiens, UniProt Q16790). Description: Inhibition of recombinant human CA9 preincubated for 15 mins by measured for 10 to 100 secs by phenol red dye based stopped flow CO2 hydration assay.
Experiment [2] concerns MDA-MB-231. Put plainly: Cytotoxicity against human MDA-MB-231 cells assessed as cell viability under hypoxia conditions at 10 uM measured after 48 hrs relative to control. The experiment is classed as functional.
Experiment [3] deals with MDA-MB-231. Put plainly: Cytotoxicity against human MDA-MB-231 cells assessed as cell killing at 1 uM measured under normoxic condition after 48 hrs relative to control. It counts as functional.
The subject of experiment [4] is MDA-MB-231. Put plainly: Cytotoxicity against human MDA-MB-231 cells assessed as cell viability at 10 uM measured under normoxic condition after 48 hrs relative to control. The experiment is classed as functional. Conditions: read-out: Activity.
Experiment [5] has as its system MDA-MB-231. Put plainly: Cytotoxicity against human MDA-MB-231 cells assessed as cell viability under hypoxia conditions at 1 uM measured after 48 hrs relative to control. The experiment is classed as functional.
Experiment [6] relates to MDA-MB-231. Description: Cytotoxicity against human MDA-MB-231 cells assessed as cell viability at 1 uM measured under normoxic condition after 48 hrs relative to control. The experiment is classed as functional. Conditions: read-out: Activity.
The subject of experiment [7] is MDA-MB-231. Description: Cytotoxicity against human MDA-MB-231 cells assessed as cell killing under hypoxia conditions at 1 uM measured after 48 hrs relative to control. It counts as functional.
Experiment [8] deals with MDA-MB-231. Put plainly: Cytotoxicity against human MDA-MB-231 cells assessed as cell killing under hypoxia conditions at 10 uM measured after 48 hrs relative to control. It counts as functional.

The structures appear in SMILES notation.

For the molecule `COc1ccc([Te]Cc2ccc(S(N)(=O)=O)cc2)cc1`, the Ki in experiment [1] stood at 2.6 nM.

In the case of `NS(=O)(=O)c1ccc(C[Te]c2ccccc2)cc1`, the Activity stood at 13% in experiment [2], 90% in experiment [3] and 16% in experiment [5]. For the same molecule, the Ki in experiment [1] was found to be 2.4 nM. Besides, the viability at 10 µM in experiment [4] was 5%.

Regarding `Cc1cccc(C)c1[Te]Cc1ccc(S(N)(=O)=O)cc1`, in experiment [1], the Ki is 2.5 nM.

For the molecule `NS(=O)(=O)c1ccc(C[Te]c2ccc3ccccc3c2)cc1`, the Ki in experiment [1] stood at 2.9 nM.

As for `COc1cc([Te]Cc2ccc(S(N)(=O)=O)cc2)cc(OC)c1OC`, in experiment [6], the viability at 1 µM was 18%. The Activity in experiment [7] came out at 65%; in experiment [8], 85%. For the same molecule, in experiment [1], the inhibition constant (Ki) came out at 2.4 nM. For the same molecule, in experiment [4], the viability at 10 µM is 3%.

As for `Cc1ccccc1[Te]Cc1ccc(S(N)(=O)=O)cc1`, in experiment [1], the inhibitory constant (Ki) came out at 2.6 nM.

As to `Cc1ccc([Te]Cc2ccc(S(N)(=O)=O)cc2)cc1`, the Ki in experiment [1] turned out to be 2.2 nM.

The values are drawn from ChEMBL document CHEMBL4811284, “Tellurides bearing benzensulfonamide as carbonic anhydrase inhibitors with potent antitumor activity” (Bioorg Med Chem Lett, 2021).
